The values below are quoted from earlier work in patent publication US7767227B2, “Galenical form for oral administration with prolonged release of molsidomine” (Therabel Pharmaceuticals Limited, priority 2000, dated 2010).

Like-named read-outs stand apart in the source and are kept apart here.

`CCOC(=O)[N-]c1cn(N2CCOCC2)n[o+]1` [Molsidomine, N-(ethoxycarbonyl)-3-(4-morpholinyl)sydnone imine]: the period of action was 4 to 5 h (4 mg dose) and 10 to 12 h (8 mg dose).
